Laboratory results reported in US6737383B1, “Herbicidal oxadiazolidines” (priority 1999, dated 2004).

How the values were obtained:
crabgrass = assay: Test B pre/postemergence crabgrass; assay type: in vivo, Digitaria sanguinalis; conditions: for Crabgrass plant response rating: scale of 0 to 10 where 0 is no effect and 10 is complete control
Method in brief: (§1)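 Test chemicals in a non-phytotoxic solvent mixture with surfactant were sprayed preemergence onto planted seeds and postemergence onto plants 2 to 18 cm tall (1- to 4-leaf stage). After twelve to sixteen days in a greenhouse, injury was visually rated against untreated controls from 0 (no effect) to 10 (complete control).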

velvetleaf = assay: Test B pre/postemergence velvetleaf; assay type: in vivo, Abutilon theophrasti; conditions: for Velvetleaf plant response rating: scale of 0 to 10 where 0 is no effect and 10 is complete control
Method in brief: as §1

wheat = assay: Test B pre/postemergence wheat; assay type: in vivo, Triticum aestivum; conditions: for Wheat plant response rating: scale of 0 to 10 where 0 is no effect and 10 is complete control
Method in brief: as §1

wild oat = assay: Test B pre/postemergence wild oat; assay type: in vivo, Avena fatua; conditions: for Wild oats plant response rating: scale of 0 to 10 where 0 is no effect and 10 is complete control
Method in brief: as §1

rape = assay: Test B pre/postemergence rape; assay type: in vivo, Brassica napus; conditions: for Rape plant response rating: scale of 0 to 10 where 0 is no effect and 10 is complete control
Method in brief: as §1

purple nutsedge = assay: Test B pre/postemergence purple nutsedge; assay type: in vivo, Cyperus rotundus; conditions: for Nutsedge plant response rating: scale of 0 to 10 where 0 is no effect and 10 is complete control
Method in brief: as §1

bamyardgrass = assay: Test B flood test barnyardgrass; assay type: in vivo, Echinochloa crus-galli
Method in brief: (§2)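 Read-out is a visual response score from 0 (no effect) to 10 (complete control), assigned by comparison with untreated controls. Treatment was applied at the 2-leaf stage, and plants stayed in the greenhouse for twelve to sixteen days before scoring.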

corn = assay: Test B pre/postemergence corn; assay type: in vivo, Zea mays; conditions: for Corn plant response rating: scale of 0 to 10 where 0 is no effect and 10 is complete control
Method in brief: as §1

giant foxtail = assay: Test B pre/postemergence giant foxtail; assay type: in vivo, Setaria faberii; conditions: for Giant foxtail plant response rating: scale of 0 to 10 where 0 is no effect and 10 is complete control
Method in brief: as §1

blackgrass = assay: Test B pre/postemergence blackgrass; assay type: in vivo, Alopecurus myosuroides
Method in brief: as §1

smallflower flatsedge = assay: Test B flood test smallflower flatsedge; assay type: in vivo, Cyperus difformis
Method in brief: as §2

sugar beet = assay: Test B pre/postemergence sugar beet; assay type: in vivo, Beta vulgaris; conditions: for Sugarbeets plant response rating: scale of 0 to 10 where 0 is no effect and 10 is complete control
Method in brief: as §1

surinam grass = assay: Test B pre/postemergence surinam grass; assay type: in vivo, Brachiaria decumbens
Method in brief: as §1

bedstraw = assay: Test B pre/postemergence bedstraw; assay type: in vivo, Galium aparine; conditions: Postemergence
Method in brief: as §1

duck salad = assay: Test B flood test duck salad; assay type: in vivo, Heteranthera limosa
Method in brief: as §2

rice = assay: Test B flood test rice; assay type: in vivo, Oryza sativa
Method in brief: as §2

[1] = Postemergence, Rate 125 g/ha, scale 0 to 10, 0 is no effect, 10 is complete control
[2] = Preemergence, Rate 62 g/ha, scale 0 to 10 (0 no effect, 10 complete control)
[3] = Rate 500 g/ha, Postemergence, scale 0 to 10, 0 no effect, 10 complete control
[4] = Postemergence (flood test), Rate 125 g/ha, scale 0 to 10, 0 is no effect, 10 is complete control
[5] = Rate 62 g/ha, Postemergence (flood test species), scale of 0 to 10 where 0 is no effect and 10 is complete control
[6] = Rate 500 g/ha, listed under Postemergence (flood test species), scale 0 to 10, 0 no effect, 10 complete control
[7] = Preemergence, Rate 250 g/ha, scale of 0 to 10 where 0 is no effect and 10 is complete control
[8] = Preemergence, Rate 500 g/ha, scale of 0 to 10 where 0 is no effect and 10 is complete control
[9] = Rate 62 g/ha, Postemergence, scale of 0 to 10 where 0 is no effect and 10 is complete control
[10] = Rate 250 g/ha, Postemergence, scale of 0 to 10 where 0 is no effect and 10 is complete control

With CC(C)N(C(=O)n1oc(=O)n(CC2CCCO2)c1=O)c1ccc(F)cc1 (centres unmarked) [Compound 343] the “Plant response rating, Crabgrass” value (crabgrass; [1]) was 1, the “Plant response rating, Crabgrass” value (crabgrass; [2]) was 6 and the “Crabgrass plant response rating (0 to 10 scale)” value (crabgrass; Preemergence, Rate 125 g/ha) was 9. The “Crabgrass plant response rating” value (crabgrass; Preemergence, Rate 500 g/ha) was 10, the “Crabgrass plant response rating” value (crabgrass; Rate 62 g/ha, Postemergence) was 1 and the “Plant response rating, Crabgrass” value (crabgrass; [3]) was 6. For the same compound, the “Plant response rating, Velvetleaf” value (velvetleaf; [1]) was 0, the “Plant response rating, Velvetleaf” value (velvetleaf; [2]) was 5 and the “Velvetleaf plant response rating (0 to 10 scale)” value (velvetleaf; Preemergence, Rate 125 g/ha) was 6. For the same compound, the “Velvetleaf plant response rating” value (velvetleaf; Preemergence, Rate 250 g/ha) was 7, the “Velvetleaf plant response rating” value (velvetleaf; Preemergence, Rate 500 g/ha) was 7 and the “Velvetleaf plant response rating” value (velvetleaf; Rate 62 g/ha, Postemergence) was 0. The “Plant response rating, Velvetleaf” value (velvetleaf; [3]) was 5, the “Plant response rating, Wheat” value (wheat; [1]) was 4 and the “Plant response rating, Wheat” value (wheat; [2]) was 0. The “Wheat plant response rating (0 to 10 scale)” value (wheat; Preemergence, Rate 125 g/ha) was 0, the “Wheat plant response rating” value (wheat; Preemergence, Rate 250 g/ha) was 0 and the “Wheat plant response rating” value (wheat; Preemergence, Rate 500 g/ha) was 5. The “Wheat plant response rating” value (wheat; Rate 62 g/ha, Postemergence) was 2, the “Plant response rating, Wheat” value (wheat; [3]) was 5 and the “Plant response rating, Wild oats” value (wild oat; [1]) was 4. The “Plant response rating, Wild oats” value (wild oat; [2]) was 2, the “Wild oats plant response rating (0 to 10 scale)” value (wild oat; Preemergence, Rate 125 g/ha) was 4 and the “Wild oats plant response rating” value (wild oat; Preemergence, Rate 250 g/ha) was 9. The “Wild oats plant response rating” value (wild oat; Preemergence, Rate 500 g/ha) was 9, the “Wild oats plant response rating” value (wild oat; Rate 62 g/ha, Postemergence) was 0 and the “Plant response rating, Wild oats” value (wild oat; [3]) was 4. The “Plant response rating, Rape” value (rape; [1]) was 0, the “Plant response rating, Rape” value (rape; [2]) was 0 and the “Rape plant response rating (0 to 10 scale)” value (rape; Preemergence, Rate 125 g/ha) was 0. The “Rape plant response rating” value (rape; Preemergence, Rate 250 g/ha) was 4, the “Rape plant response rating” value (rape; Preemergence, Rate 500 g/ha) was 6 and the “Rape plant response rating” value (rape; Rate 62 g/ha, Postemergence) was 0. For the same compound, the “Plant response rating, Rape” value (rape; [3]) was 3, the “Plant response rating, Nutsedge” value (purple nutsedge; [1]) was 0 and the “Plant response rating, Nutsedge” value (purple nutsedge; [2]) was 0. For the same compound, the “Nutsedge plant response rating (0 to 10 scale)” value (purple nutsedge; Preemergence, Rate 125 g/ha) was 0, the “Nutsedge plant response rating” value (purple nutsedge; Preemergence, Rate 250 g/ha) was 0 and the “Nutsedge plant response rating” value (purple nutsedge; Preemergence, Rate 500 g/ha) was 0. For the same compound, the “Nutsedge plant response rating” value (purple nutsedge; Rate 62 g/ha, Postemergence) was 0, the “Plant response rating, Nutsedge” value (purple nutsedge; [3]) was 3 and the “Plant response rating, Barnyardgrass” value (bamyardgrass; [4]) was 0. For the same compound, the “Barnyardgrass plant response rating” value (bamyardgrass; [5]) was 0, the “Plant response rating, Barnyardgrass” value (bamyardgrass; Rate 250 g/ha, Postemergence (flood test species), scale of 0 to 10 where 0 is no effect and 10 is complete control) was 0 and the “Plant response rating, Barnyardgrass” value (bamyardgrass; [6]) was 2. For the same compound, the “Plant response rating, Corn” value (corn; [1]) was 0, the “Plant response rating, Corn” value (corn; [2]) was 0 and the “Corn plant response rating (0 to 10 scale)” value (corn; Preemergence, Rate 125 g/ha) was 0. The “Corn plant response rating” value (corn; Preemergence, Rate 250 g/ha) was 0, the “Corn plant response rating” value (corn; Preemergence, Rate 500 g/ha) was 4 and the “Corn plant response rating” value (corn; Rate 62 g/ha, Postemergence) was 0. For the same compound, the “Plant response rating, Corn” value (corn; [3]) was 2, the “Plant response rating, Giant foxtail” value (giant foxtail; [1]) was 7 and the “Plant response rating, Giant foxtail” value (giant foxtail; [2]) was 10. The “Giant foxtail plant response rating (0 to 10 scale)” value (giant foxtail; Preemergence, Rate 125 g/ha) was 10, the “Giant foxtail plant response rating” value (giant foxtail; Preemergence, Rate 250 g/ha) was 10 and the “Giant foxtail plant response rating” value (giant foxtail; Preemergence, Rate 500 g/ha) was 10. The “Giant foxtail plant response rating” value (giant foxtail; Rate 62 g/ha, Postemergence) was 7, the “Plant response rating, Giant foxtail” value (giant foxtail; [3]) was 9 and the “Plant response rating, Blackgrass” value (blackgrass; [1]) was 3. The “Plant response rating, Blackgrass” value (blackgrass; [2]) was 7, the “Blackgrass plant response rating (0 to 10 scale)” value (blackgrass; Preemergence, Rate 125 g/ha) was 8 and the “Blackgrass plant response rating” value (blackgrass; [7]) was 9. The “Blackgrass plant response rating” value (blackgrass; [8]) was 10, the “Blackgrass plant response rating” value (blackgrass; [9]) was 3 and the “Plant response rating, Blackgrass” value (blackgrass; [10]) was 5. The “Plant response rating, Blackgrass” value (blackgrass; [3]) was 6, the “Plant response rating, S. Flatsedge” value (smallflower flatsedge; [4]) was 0 and the “S. Flatsedge plant response rating” value (smallflower flatsedge; [5]) was 0. For the same compound, the “Plant response rating, S. Flatsedge” value (smallflower flatsedge; [6]) was 0, the “Plant response rating, Sugarbeets” value (sugar beet; [1]) was 0 and the “Plant response rating, Sugarbeets” value (sugar beet; [2]) was 0. For the same compound, the “Sugarbeets plant response rating (0 to 10 scale)” value (sugar beet; Preemergence, Rate 125 g/ha) was 0, the “Sugarbeets plant response rating” value (sugar beet; Preemergence, Rate 250 g/ha) was 1 and the “Sugarbeets plant response rating” value (sugar beet; Preemergence, Rate 500 g/ha) was 6. For the same compound, the “Sugarbeets plant response rating” value (sugar beet; Rate 62 g/ha, Postemergence) was 0, the “Plant response rating, Sugarbeets” value (sugar beet; [3]) was 3 and the “Plant response rating, B. signalgrass” value (surinam grass; [1]) was 4. For the same compound, the “Plant response rating, B. signalgrass” value (surinam grass; [2]) was 3, the “B. signalgrass plant response rating (0 to 10 scale, 0 is no effect, 10 is complete control)” value (surinam grass; Preemergence, Rate 125 g/ha) was 4 and the “B. signalgrass plant response rating” value (surinam grass; [7]) was 6. The “B. signalgrass plant response rating” value (surinam grass; [8]) was 8, the “B. signalgrass plant response rating” value (surinam grass; [9]) was 2 and the “Plant response rating, B. signalgrass” value (surinam grass; [10]) was 4. The “Plant response rating, B. signalgrass” value (surinam grass; [3]) was 7, the “Plant response rating, Bedstraw” value (bedstraw; Rate 125 g/ha, scale 0 to 10, 0 is no effect, 10 is complete control) was 0 and the “Bedstraw plant response rating” value (bedstraw; Rate 62 g/ha, scale of 0 to 10 where 0 is no effect and 10 is complete control) was 0. The “Plant response rating, Bedstraw” value (bedstraw; Rate 250 g/ha, scale of 0 to 10 where 0 is no effect and 10 is complete control) was 0, the “Plant response rating, Bedstraw” value (bedstraw; Rate 500 g/ha, scale 0 to 10, 0 no effect, 10 complete control) was 3 and the “Plant response rating, Ducksalad” value (duck salad; [4]) was 0. For the same compound, the “Ducksalad plant response rating” value (duck salad; [5]) was 0, the “Plant response rating, Ducksalad” value (duck salad; [6]) was 0 and the “Plant response rating, Rice” value (rice; [4]) was 0. For the same compound, the “Rice plant response rating” value (rice; [5]) was 0 and the “Plant response rating, Rice” value (rice; [6]) was 0.
